The term IC50 denotes the concentration that gives 50% inhibition. A high value points to a need for much substance.

Where a name gives a salt, the structure may show the parent alone.

Sequence of Integrin alpha-IIb/beta-3 (P05106 27-788 limits assumed): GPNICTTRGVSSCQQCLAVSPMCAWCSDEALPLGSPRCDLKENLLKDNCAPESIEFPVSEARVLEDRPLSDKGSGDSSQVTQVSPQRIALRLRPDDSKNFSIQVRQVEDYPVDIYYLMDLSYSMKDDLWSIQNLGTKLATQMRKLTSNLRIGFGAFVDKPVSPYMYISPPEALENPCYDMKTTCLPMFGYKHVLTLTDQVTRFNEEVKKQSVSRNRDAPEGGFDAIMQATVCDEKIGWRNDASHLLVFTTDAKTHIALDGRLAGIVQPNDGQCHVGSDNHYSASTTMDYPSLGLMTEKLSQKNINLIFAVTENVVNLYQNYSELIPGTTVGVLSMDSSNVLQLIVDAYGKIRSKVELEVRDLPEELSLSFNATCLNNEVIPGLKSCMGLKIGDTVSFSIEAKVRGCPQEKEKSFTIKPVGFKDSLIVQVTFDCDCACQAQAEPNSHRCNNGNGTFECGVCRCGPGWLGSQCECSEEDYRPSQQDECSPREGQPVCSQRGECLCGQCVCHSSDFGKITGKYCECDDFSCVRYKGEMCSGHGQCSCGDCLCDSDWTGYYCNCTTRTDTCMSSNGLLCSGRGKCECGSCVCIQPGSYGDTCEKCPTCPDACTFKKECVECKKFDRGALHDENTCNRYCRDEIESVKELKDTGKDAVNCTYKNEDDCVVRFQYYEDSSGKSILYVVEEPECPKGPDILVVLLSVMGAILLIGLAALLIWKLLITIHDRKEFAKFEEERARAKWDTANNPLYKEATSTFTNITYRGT
Sequence of Integrin alpha-IIb/beta-3 (P08514 32-887 limits assumed): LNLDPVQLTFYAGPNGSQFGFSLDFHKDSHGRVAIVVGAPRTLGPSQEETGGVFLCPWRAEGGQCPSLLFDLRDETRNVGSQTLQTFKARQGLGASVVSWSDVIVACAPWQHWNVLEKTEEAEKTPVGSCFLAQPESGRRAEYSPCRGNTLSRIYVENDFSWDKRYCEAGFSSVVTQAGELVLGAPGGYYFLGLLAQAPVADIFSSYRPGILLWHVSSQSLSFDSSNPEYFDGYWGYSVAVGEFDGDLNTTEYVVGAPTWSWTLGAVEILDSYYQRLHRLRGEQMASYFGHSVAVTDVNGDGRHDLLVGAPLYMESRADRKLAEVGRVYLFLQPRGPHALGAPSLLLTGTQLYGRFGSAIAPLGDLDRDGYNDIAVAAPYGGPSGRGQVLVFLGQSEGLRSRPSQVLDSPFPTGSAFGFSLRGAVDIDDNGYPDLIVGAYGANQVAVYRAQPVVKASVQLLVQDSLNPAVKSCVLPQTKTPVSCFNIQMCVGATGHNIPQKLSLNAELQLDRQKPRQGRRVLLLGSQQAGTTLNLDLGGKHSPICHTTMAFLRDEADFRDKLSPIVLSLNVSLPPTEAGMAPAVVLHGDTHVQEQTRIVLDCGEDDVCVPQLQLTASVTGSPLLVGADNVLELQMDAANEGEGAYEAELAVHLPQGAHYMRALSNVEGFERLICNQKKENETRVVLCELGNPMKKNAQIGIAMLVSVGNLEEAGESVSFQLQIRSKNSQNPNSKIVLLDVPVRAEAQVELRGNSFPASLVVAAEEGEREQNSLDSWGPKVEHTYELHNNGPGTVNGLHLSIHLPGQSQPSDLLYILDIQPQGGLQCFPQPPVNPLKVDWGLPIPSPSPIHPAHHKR
Sequence of Integrin alpha-IIb/beta-3 (P08514 891-1039 limits assumed): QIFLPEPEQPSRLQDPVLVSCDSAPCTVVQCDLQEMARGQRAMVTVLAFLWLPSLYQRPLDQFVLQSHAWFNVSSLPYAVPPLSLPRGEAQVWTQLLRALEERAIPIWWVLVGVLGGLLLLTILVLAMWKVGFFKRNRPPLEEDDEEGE

The experiment concerns the target Integrin alpha-IIb/beta-3 (Homo sapiens, UniProt P08514+P05106). The experiment in a line: In vitro inhibition of ADP-induced platelet aggregation in human platelet rich plasma (hPRP).
`N=C(N)c1ccc(C2=NOC(CC(=O)NC[C@H](NC(=O)c3ccc4ccccc4c3)C(=O)O)C2)cc1` (stereo partly drawn) [(S)-3-{2-[3-(4-Carbamimidoyl-phenyl)-4,5-dihydro-isoxazol-5-yl]-acetylamino}-2-[(naphthalene-2-carbonyl)-amino]-propionic acid; TFA]: the IC50 turned out to be 61 nM.
In the case of `N=C(N)c1ccc(C2=NOC(CC(=O)N[C@H](CC(=O)O)Cc3ccccc3)C2)cc1` (stereo partly drawn) [(S)-3-{2-[3-(4-Carbamimidoyl-phenyl)-4,5-dihydro-isoxazol-5-yl]-acetylamino}-4-phenyl-butyric acid; hydrochloride], the half-maximal inhibitory concentration (IC50) came out at 1400 nM.
Consider `CC(C)OC(=O)N[C@@H](CNC(=O)CC1CC(c2ccc(C(=N)N)cc2)=NO1)C(=O)O` (stereo partly drawn) [(S)-3-{2-[3-(4-Carbamimidoyl-phenyl)-4,5-dihydro-isoxazol-5-yl]-acetylamino}-2-isopropoxycarbonylamino-propionic acid; TFA], for which the midpoint of inhibition, the IC50, lay at 130 nM.
Then `CCCCOC(=O)N[C@@H](CNC(=O)CC1CC(CC2CCNCC2)=NO1)C(=O)O` (stereo partly drawn) [(S)-2-Butoxycarbonylamino-3-[2-(3-piperidin-4-ylmethyl-4,5-dihydro-isoxazol-5-yl)-acetylamino]-propionic acid; TFA], with 10000 nM; and `N=C(N)c1ccc(C2=NOC(CC(=O)NC[C@H](NC(=O)OCCC3CC3)C(=O)O)C2)cc1` (stereo partly drawn) [(S)-3-{2-[3-(4-Carbamimidoyl-phenyl)-4,5-dihydro-isoxazol-5-yl]-acetylamino}-2-(2-cyclopropyl-ethoxycarbonylamino)-propionic acid; TFA], with 36 nM; and `C=CCCOC(=O)N[C@@H](CNC(=O)CC1CC(c2ccc(C(=N)N)cc2)=NO1)C(=O)O` (stereo partly drawn) [(S)-2-But-3-enyloxycarbonylamino-3-{2-[3-(4-carbamimidoyl-phenyl)-4,5-dihydro-isoxazol-5-yl]-acetylamino}-propionic acid; TFA], with 44 nM.
For `COC(=O)C[C@H](CN1CCCC1)NC(=O)CC1CC(c2ccc(C(=N)N)cc2)=NO1` (stereo partly drawn) [(R)-3-{2-[3-(4-Carbamimidoyl-phenyl)-4,5-dihydro-isoxazol-5-yl]-acetylamino}-4-pyrrolidin-1-yl-butyric acid methyl ester; TFA] the value was 3300 nM; for `N=C(N)c1ccc(C2=NO[C@@H](CC(=O)NCCC(=O)O)C2)cc1`, 60 nM.
Compound `CCCCCCOC(=O)N[C@@H](CNC(=O)CC1CC(c2ccc(C(=N)N)cc2)=NO1)C(=O)O` (stereo partly drawn) [(S)-3-{2-[3-(4-Carbamimidoyl-phenyl)-4,5-dihydro-isoxazol-5-yl]-acetylamino}-2-hexyloxycarbonylamino-propionic acid; TFA] returned an IC50 of 41 nM.
Compound `N=C(N)c1ccc(C2=NOC(CC(=O)N[C@@H](CC(=O)O)C(=O)N3CCC4CCC(CC4)C3)C2)cc1` (stereo partly drawn) [(S)-4-(3-Aza-bicyclo[4.2.2]dec-3-yl)-3-{2-[3-(4-carbamimidoyl-phenyl)-4,5-dihydro-isoxazol-5-yl]-acetylamino}-4-oxo-butyric acid; TFA] had an IC50 of 210 nM.
Compound `COC(=O)CC(CN(C)C)NC(=O)CC1CC(c2ccc(C(=N)N)cc2)=NO1` (stereo not given) [3-{2-[3-(4-Carbamimidoyl-phenyl)-4,5-dihydro-isoxazol-5-yl]-acetylamino}-4-dimethylamino-butyric acid methyl ester; TFA] displayed an IC50 of 2700 nM.
The compound `COC(=O)[C@H](CN(C)C(=O)CC1CC(c2ccc(C(=N)N)cc2)=NO1)NC(=O)OCc1ccccc1` (stereo partly drawn) [(S)-2-Benzyloxycarbonylamino-3-({2-[3-(4-carbamimidoyl-phenyl)-4,5-dihydro-isoxazol-5-yl]-acetyl}-methyl-amino)-propionic acid methyl ester; TFA] had an IC50 of 160 nM.
As for `N=C(N)c1ccc(C2=NOC(CC(=O)NC[C@H](NC(=O)OCCC(F)(F)F)C(=O)O)C2)cc1` (stereo partly drawn) [(S)-3-{2-[3-(4-Carbamimidoyl-phenyl)-4,5-dihydro-isoxazol-5-yl]-acetylamino}-2-(3,3,3-trifluoro-propoxycarbonylamino)-propionic acid; TFA], the IC50 is 31 nM.
For `N=C(N)c1ccc(C2=NOC(CC(=O)N[C@@H](CC(=O)O)C(=O)N3CCc4ccccc4C3)C2)cc1` (stereo not given in full) the value was 170 nM.
In turn, `N=C(N)c1ccc(C2=NOC(CC(=O)N[C@H](CCc3cccnc3)CC(=O)O)C2)cc1` (stereo partly drawn) [(R)-3-{2-[3-(4-Carbamimidoyl-phenyl)-4,5-dihydro-isoxazol-5-yl]-acetylamino}-5-pyridin-3-yl-pentanoic acid; TFA] returned an IC50 of 360 nM.
For `COC(=O)[C@H](CNC(=O)CC1CC(c2ccc(C(=N)N)cc2)=NO1)NC(=O)Nc1ccccc1` (stereo partly drawn) [(S)-3-{2-[3-(4-Carbamimidoyl-phenyl)-4,5-dihydro-isoxazol-5-yl]-acetylamino}-2-(3-phenyl-ureido)-propionic acid methyl ester; TFA] the value was 69 nM; for `CCCCOC(=O)N[C@H](CNC(=O)C[C@H]1CC(c2ccc(C(=N)N)cc2)=NO1)C(=O)O` [(R)-2-Butoxycarbonylamino-3-{2-[(R)-3-(4-carbamimidoyl-phenyl)-4,5-dihydro-isoxazol-5-yl]-acetylamino}-propionic acid; hydrochloride], 27 nM.
For `CCCCOC(=O)N[C@@H](CNC(=O)CC1CC(CCCC2CCNCC2)=NO1)C(=O)O` (stereo partly drawn) [(S)-2-Butoxycarbonylamino-3-{2-[3-(3-piperidin-4-yl-propyl)-4,5-dihydro-isoxazol-5-yl]-acetylamino}-propionic acid; TFA] the value was 180 nM; for `N=C(N)c1ccc(C2=NOC(CC(=O)NC[C@H](NC(=O)OCc3ccccc3Cl)C(=O)O)C2)cc1` (stereo partly drawn) [(S)-3-{2-[3-(4-Carbamimidoyl-phenyl)-4,5-dihydro-isoxazol-5-yl]-acetylamino}-2-(2-chloro-benzyloxycarbonylamino)-propionic acid; TFA], 32 nM; for `N=C(N)c1ccc(C2=NOC(CC(=O)NC[C@H](NC(=O)CCc3ccccc3)C(=O)O)C2)cc1` (stereo partly drawn) [(S)-3-{2-[3-(4-Carbamimidoyl-phenyl)-4,5-dihydro-isoxazol-5-yl]-acetylamino}-2-(3-phenyl-propionylamino)-propionic acid; TFA], 31 nM.
For the compound `CCCCOC(=O)N[C@H](CNC(=O)C[C@@H]1CC(c2ccc(C(=N)N)cc2)=NO1)C(=O)O` [(R)-2-Butoxycarbonylamino-3-{2-[(S)-3-(4-carbamimidoyl-phenyl)-4,5-dihydro-isoxazol-5-yl]-acetylamino}-propionic acid; hydrochloride], the IC50 was 100 nM.
Then `CCCCN(Cc1ccccc1)C(=O)[C@H](CC(=O)O)NC(=O)CC1CC(c2ccc(C(=N)N)cc2)=NO1` (stereo partly drawn) [(S)-N-Benzyl-N-butyl-3-{2-[3-(4-carbamimidoyl-phenyl)-4,5-dihydro-isoxazol-5-yl]-acetylamino}-succinamic acid; TFA], with 180 nM; and `N=C(N)c1ccc(C2=NOC(CC(=O)NC[C@H](NC(=O)c3ccc(-c4ccccc4)cc3)C(=O)O)C2)cc1` (stereo partly drawn) [(S)-2-[(Biphenyl-4-carbonyl)-amino]-3-{2-[3-(4-carbamimidoyl-phenyl)-4,5-dihydro-isoxazol-5-yl]-acetylamino}-propionic acid; TFA], with 67 nM; and `N=C(N)c1ccc(C2=NOC(CC(=O)NC(CC(=O)O)CC(=O)O)C2)cc1` (stereo not given) [3-{2-[3-(4-Carbamimidoyl-phenyl)-4,5-dihydro-isoxazol-5-yl]-acetylamino}-pentanedioic acid; TFA], with 210 nM.
With `O=C(CC1CC(CCC2CCNCC2)=NO1)NC[C@H](NC(=O)OCc1ccccc1)C(=O)O` (stereo partly drawn) [(S)-2-Benzyloxycarbonylamino-3-{2-[3-(2-piperidin-4-yl-ethyl)-4,5-dihydro-isoxazol-5-yl]-acetylamino}-propionic acid; TFA], inhibition was half-maximal at 210 nM (IC50).
For `CCCCS(=O)(=O)N[C@@H](CNC(=O)CC1CC(c2ccc(C(=N)N)cc2)=NO1)C(=O)O` (stereo partly drawn) [(S)-2-(Butane-1-sulfonylamino)-3-{2-[3-(4-carbamimidoyl-phenyl)-4,5-dihydro-isoxazol-5-yl]-acetylamino}-propionic acid; TFA], the concentration for half-maximal inhibition (IC50) was 31 nM.
`N=C(N)c1ccc(C2=NO[C@@H](CC(=O)N[C@@H](CC(=O)O)c3cccnc3)C2)cc1` [(S)-3-{2-[(R)-3-(4-Carbamimidoyl-phenyl)-4,5-dihydro-isoxazol-5-yl]-acetylamino}-3-pyridin-3-yl-propionic acid; TFA] had an IC50 of 170 nM.
`COC(=O)C[C@@H](CC(C)C)NC(=O)CC1CC(c2ccc(C(=N)N)cc2)=NO1` (stereo partly drawn) [(R)-3-{2-[3-(4-Carbamimidoyl-phenyl)-4,5-dihydro-isoxazol-5-yl]-acetylamino}-5-methyl-hexanoic acid methyl ester; TFA]: the IC50 worked out at 50 nM.
Then `CC[C@H](CC(=O)O)NC(=O)C[C@H]1CC(c2ccc(C(=N)N)cc2)=NO1` [(R)-3-{2-[(R)-3-(4-Carbamimidoyl-phenyl)-4,5-dihydro-isoxazol-5-yl]-acetylamino}-pentanoic acid; TFA], with 54 nM; and `COC(=O)N[C@@H](CNC(=O)CC1CC(c2ccc(C(=N)N)cc2)=NO1)C(=O)O` (stereo partly drawn) [(S)-3-{2-[3-(4-Carbamimidoyl-phenyl)-4,5-dihydro-isoxazol-5-yl]-acetylamino}-2-methoxycarbonylamino-propionic acid; TFA], with 65 nM.
